Reference: patent US20220226479A1, “CELL LAYER PERMEATION PROMOTER. COMPOSITION FOR FACILITATING DRUG ABSORPTION. AND PHARMACEUTICAL COMPOSITION” (University of Tsukuba, priority 2019, published 2022)
“Also recorded” adds a separate entry of the source. Where a SMILES comes first, the peptide text is derived from it. Bridges are numbered along the chain shown (N, C = ends). [ ]: non-standard residue; d: D form. The star is where a group is joined. ξ: configuration not given here. Decanoyl(3ξ-OH) = CCCCCCCC(O)CC(=O)*; Decanoyl = CCCCCCCCCC(=O)*

Test system: MDCK II cells
Test: Permeation evaluation test with FD4 marker (dextran, molecular weight 4000) across a model epithelial cell layer in a transwell
Type: cell-based, dog
Details: for cell-layer-permeation-promoting effect (permeation of FD4, result in words): 0.003 mM in 1 v/v % DMSO, FIG. 1-4; for increase/accumulation in the amount permeating the receiver solution, late period / reversibility of the permeation-accelerating effect: 0.003 mM; for increase/accumulation in the amount permeating the receiver solution, late period: period from two hours to five hours after the start of testing, test example 1; for reversibility of the permeation-accelerating effect: recovery of tight junctions and other cell bonding structures; for increase in the amount of FD4 permeating the receiver solution with respect to the negative control (factor): test substance 0.003 mM in 1 v/v % DMSO, two hours after the start of testing, test example 1, FIG. 1; for cell-layer-permeation-promoting effect compared with cu538-2: both at 0.003 mM, test examples 2-4, FIG. 2-4
Protocol: MDCK II cells derived from dog kidney epithelial cells were used to create a model of an epithelial cell layer in which a transwell was used, and a test to evaluate permeation by substances was conducted. Specifically, MDCK II cells in a logarithmic growth phase were sowed in a transwell (diameter: 6.5 mm, collagen coat, pore size: 0.4 μm) (trade name “Corning Transwell 3495,” made by Corning Co., Ltd.) at a cell count of 3.4 to 4.0×10^4 cells, a 24-hole well plate was used as basal-side wells, and 600 μL of a cell growth medium was introduced into each of apical-side wells and the basal-side wells. The medium was replaced daily to form a layer, and three days after sowing the medium was replaced with a Hank's balanced salt solution (HESS) for measurement. After incubation for one hour at 37° C., layer formation was confirmed by measuring the transepithelial electrical resistance (TEER) using a resistance value measurement system (trade name “Millicell-ERS,” made by Millipore Corp.). After layer formation was confirmed, the apical-side medium was replaced by 100 μL of HESS to which a marker substance (FD4: […]) (made by Sigma KK) having a molecular weight of 4000 was added so as to reach a concentration of 1.0 w/v %, and test substances were added so as to reach the final concentrations indicated below. The transwell was shifted, at intervals of 30 minutes until five hours after addition of the marker substance, to the basal-side wells into which the new HESS entered, and the HESS in the remaining basal-side wells (referred to as a “receiver solution” below) was retrieved 50 μL at a time per well in a 96-hole well plate. The fluorescence intensity of the retrieved HESS at an excitation wavelength of 485 nm and a fluorescence wavelength of 528 nm was measured using a fluorescent plate reader (trade name “Wallac 1420 ARVO MX,” made by Perkin Elmer Corp.).
A test to evaluate permeation by substances was conducted in the same manner as in test example 1, except that the test substances were as indicated below.

Structure (SMILES) | cell-layer-permeation-promoting effect (permeation of FD4, result in words) | increase/accumulation in the amount permeating the receiver solution, late period | reversibility of the permeation-accelerating effect | increase in the amount of FD4 permeating the receiver solution with respect to the negative control (factor) | cell-layer-permeation-promoting effect compared with cu538-2 | amount of marker substance permeating the receiver solution over time (positive control) (0.0001 mM in 1 v/v % DMSO, over five hours after the start of testing)
CCCCCCC[C@@H](O)CC(=O)N[C@@H](CC(C)C)C(=O)N[C@H](CCC(=O)O)C(=O)N[C@H](CCC(N)=O)C(=O)N[C@@H](C(=O)N[C@H](CC(C)C)C(=O)N[C@@H](CCC(N)=O)C(=O)N[C@@H]1COC(=O)[C@H]([C@@H](C)CC)NC(=O)[C@@H](CCC(N)=O)NC(=O)[C@H](CC(C)C)NC(=O)[C@H](CC(C)C)NC(=O)[C@@H](CCC(N)=O)NC(=O)[C@@H](CC(C)C)NC(=O)[C@@H](C(C)C)NC1=O)C(C)C [cu538-2] | accelerated permeation of substances in the paracellular pathway | substantially no increase/accumulation | reversible | eight | – | –
CCCCCCCCCC(=O)N[C@@H](CC(C)C)C(=O)N[C@H](CCC(=O)O)C(=O)N[C@H](CCC(N)=O)C(=O)N[C@@H](C(=O)N[C@H](CC(C)C)C(=O)N[C@@H](CCC(N)=O)C(=O)N[C@@H]1COC(=O)[C@H]([C@@H](C)CC)NC(=O)[C@@H](CCC(N)=O)NC(=O)[C@H](CC(C)C)NC(=O)[C@H](CC(C)C)NC(=O)[C@@H](CCC(N)=O)NC(=O)[C@@H](CC(C)C)NC(=O)[C@@H](C(C)C)NC1=O)C(C)C [NY-38] (Decanoyl-L[dE][dQ][dV][dL]Q[dS][dV][dL][dQ]LL[dQ]I; ester 7-C) | accelerated permeation of substances in the paracellular pathway; also recorded: cell-layer-permeation-promoting effect was found | – | reversible | – | more remarkable | –
CCCCCCCC(O)CC(=O)N[C@@H](CC(C)C)C(=O)N[C@H](CCC(=O)O)C(=O)N[C@H](CCC(N)=O)C(=O)N[C@@H](C(=O)N[C@H](CC(C)C)C(=O)N[C@@H](CCC(N)=O)C(=O)N[C@@H]1COC(=O)[C@H]([C@@H](C)CC)NC(=O)[C@@H](C)NC(=O)[C@H](CC(C)C)NC(=O)[C@H](CC(C)C)NC(=O)[C@@H](CCC(N)=O)NC(=O)[C@@H](CC(C)C)NC(=O)[C@@H](C(C)C)NC1=O)C(C)C (stereo partly drawn) [cu619] ({Decanoyl(3ξ-OH)}-L[dE][dQ][dV][dL]Q[dS][dV][dL][dQ]LL[dA]I; ester 7-C) | found to have an effect | – | – | – | more remarkable | –
CCCCCCC[C@H](O)CC(=O)N[C@@H](CC(C)C)C(=O)N[C@H](CCC(=O)O)C(=O)N[C@H](CCC(N)=O)C(=O)N[C@@H](C(=O)N[C@H](CC(C)C)C(=O)N[C@@H](CCC(N)=O)C(=O)N[C@@H]1COC(=O)[C@H]([C@@H](C)CC)NC(=O)[C@@H](CCC(N)=O)NC(=O)[C@H](CC(C)C)NC(=O)[C@H](CC(C)C)NC(=O)[C@@H](CCC(N)=O)NC(=O)[C@@H](CC(C)C)NC(=O)[C@@H](C(C)C)NC1=O)C(C)C (single isomer, unassigned) [cu538-1] | accelerated permeation of substances in the paracellular pathway | substantially no increase/accumulation | reversible | four | – | –
CCCCCCCC(O)CC(=O)N[C@@H](CC(C)C)C(=O)N[C@H](CCC(=O)O)C(=O)N[C@H](CCC(N)=O)C(=O)N[C@@H](C(=O)N[C@H](CC(C)C)C(=O)N[C@@H](C)C(=O)N[C@@H]1COC(=O)[C@H]([C@@H](C)CC)NC(=O)[C@@H](CCC(N)=O)NC(=O)[C@H](CC(C)C)NC(=O)[C@H](CC(C)C)NC(=O)[C@@H](CCC(N)=O)NC(=O)[C@@H](CC(C)C)NC(=O)[C@@H](C(C)C)NC1=O)C(C)C (stereo partly drawn) [cu592] ({Decanoyl(3ξ-OH)}-L[dE][dQ][dV][dL]A[dS][dV][dL][dQ]LL[dQ]I; ester 7-C) | – | – | – | – | equivalent | –
CCCCCCCC(O)CC(=O)N[C@@H](CC(C)C)C(=O)N[C@H](CCC(=O)O)C(=O)N[C@H](CCC(N)=O)C(=O)N[C@@H](C(=O)N[C@H](CC(C)C)C(=O)N[C@@H](CCC(N)=O)C(=O)N[C@@H]1COC(=O)[C@H]([C@@H](C)CC)NC(=O)[C@@H](CCC(N)=O)NC(=O)[C@H](CC(C)C)NC(=O)[C@H](CC(C)C)NC(=O)[C@@H](C)NC(=O)[C@@H](CC(C)C)NC(=O)[C@@H](C(C)C)NC1=O)C(C)C (stereo partly drawn) [cu605] ({Decanoyl(3ξ-OH)}-L[dE][dQ][dV][dL]Q[dS][dV][dL][dA]LL[dQ]I; ester 7-C) | found to have an effect | – | – | – | – | –
C/C1=C/C(=O)O[C@@H]2C[C@@H](CC[C@H](C)/C=C\C=C\CC1)O[C@@](O)([C@@H]1CSC(=O)N1)C2 [Latrunclin A, reference compound] | – | – | – | – | – | continuous increase/accumulation
